# Laboratory results as given in patent US20220248678A1, “HERBICIDAL COMPOUNDS” (SYNGENTA CROP PROTECTION AG, priority 2019, published 2022).
# Tests used:
# Assay in all cases: Post-emergence efficacy, glasshouse
# Format in all cases: in vivo
# Details in all cases: after 13 days, 100=total damage to plant, 0=no damage to plant
# [1] = test system: Eleusine indica (ELEIN)
# Protocol: (§1) Seeds of a variety of test species were shown in standard soil in pots. After cultivation for 14 days (post-emergence) under controlled conditions in a glasshouse (at 24/16° C., day/night; 14 hours light; 65% humidity), the plants were sprayed with an aqueous spray solution derived from the dissolution of the technical active ingredient for each of compounds 1 to 26 from Table A above, in a small amount of acetone and a special solvent and emulsifier mixture referred to as IF50 (11.12% Emulsogen EL360 TM+44.44% N-methylpyrrolidone+44.44% Dowanol DPM glycol ether), to create a 50 g/I solution which was then diluted to required concentration using 0.25% or 1% Empicol ESC70 (Sodium lauryl ether sulphate)+1% ammonium sulphate in water as diluent. These spray test compositions are described as composition numbers C1 to C26, with the numerical value corresponding to the compound number from Table A.
# (§2) The test plants were then grown in a glasshouse under controlled conditions (at 24/16° C., day/night; 14 hours light; 65% humidity) and watered twice daily. After 13 days the test was evaluated (100=total damage to plant; 0=no damage to plant).
# (§3) Ipomoea hederacea (IPOHE), Euphorbia heterophylla (EPHHL), Chenopodium album (CHEAL), Amaranthus palmeri (AMAPA), Lolium perenne (LOLPE), Digitaria sanguinalis (DIGSA), Eleusine indica (ELEIN), Echinochloa crus-galli (ECHCG), Setaria faberi (SETFA)
# [2] = test system: Setaria faberi (SETFA)
# Protocol: as §1, §2, §3
# [3] = test system: Ipomoea hederacea (IPOHE)
# Protocol: as §1, §2, §3
# [4] = test system: Digitaria sanguinalis (DIGSA)
# Protocol: as §1, §2, §3
# [5] = test system: Amaranthus palmeri (AMAPA)
# Protocol: as §1, §2, §3
# [6] = test system: Euphorbia heterophylla (EPHHL)
# Protocol: as §1, §2, §3
# [7] = test system: Chenopodium album (CHEAL)
# Protocol: as §1, §2, §3
# [8] = test system: Lolium perenne (LOLPE)
# Protocol: as §1, §2, §3
# [9] = test system: Echinochloa crus-galli (ECHCG)
# Protocol: as §1, §2, §3
Compound,Control of weed species ELEIN ([1]; 1000 g/Ha),Control of weed species SETFA ([2]; 1000 g/Ha),Control of weed species IPOHE ([3]; 1000 g/Ha),Control of weed species DIGSA ([4]; 1000 g/Ha),Control of weed species AMAPA ([5]; 1000 g/Ha),Control of weed species EPHHL ([6]; 1000 g/Ha),Control of weed species CHEAL ([7]; 1000 g/Ha),Control of weed species LOLPE ([8]; 1000 g/Ha),Control of weed species ECHCG ([9]; 1000 g/Ha),Control of weed species ELEIN ([1]; 500 g/Ha),Control of weed species SETFA ([2]; 500 g/Ha),Control of weed species IPOHE ([3]; 500 g/Ha),Control of weed species DIGSA ([4]; 500 g/Ha),Control of weed species AMAPA ([5]; 500 g/Ha),Control of weed species EPHHL ([6]; 500 g/Ha),Control of weed species CHEAL ([7]; 500 g/Ha),Control of weed species LOLPE ([8]; 500 g/Ha),Control of weed species ECHCG ([9]; 500 g/Ha)
COP(=O)([O-])c1c[n+](C)nc2c(C)cccc12 [Composition C15],80,50,20,70,40,100,50,20,50,–,–,–,–,–,–,–,–,–
COP(=O)([O-])c1c[n+](C)nc2ccc(C(F)(F)F)cc12 [Composition C19],–,–,–,–,–,–,–,–,–,10,10,0,10,10,0,10,10,10
COP(=O)([O-])c1c[n+](C)nc2cc(C)ccc12 [Composition C14],100,90,100,80,100,100,100,60,70,–,–,–,–,–,–,–,–,–
COP(=O)([O-])c1c[n+](C)nc2ccccc12 [Composition C27],–,–,–,–,–,–,–,–,–,100,100,90,100,100,100,100,90,100
CC(C)OP(=O)([O-])c1c[n+](C)nc2ccccc12 [Composition C8],100,90,100,100,100,100,100,50,100,–,–,–,–,–,–,–,–,–
C[n+]1cc(P(=O)([O-])OCC(F)(F)F)c2ccccc2n1 [Composition C6],100,90,100,100,100,100,100,80,100,–,–,–,–,–,–,–,–,–
